In one test the test system is CD8+ T cells. Nature of the test: In vitro priming of CD8+ T cells with pMHC/anti-CD28 coated beads, multimer readout (in vitro immunogenicity). Type of test: cell-based, human. As to conditions: healthy HLA-A*24 donors, three stimulations; for Positive wells/wells tested [%]: at least 24 wells evaluable per peptide; for Positive donors/donors tested [%]: at least two donors evaluable per peptide. As to the method:
In order to perform in vitro stimulations by artificial antigen presenting cells (aAPC) loaded with peptide-MHC complex (pMHC) and anti-CD28 antibody, we first isolated CD8 T cells from fresh HLA-A*24 leukapheresis products of healthy donors obtained from the Blood Bank Tuebingen.
Isolation of CD8+ lymphocytes was performed by positive selection using CD8 MicroBeads (Miltenyi Biotec, Bergisch-Gladbach, Germany).
Stimulations were initiated in 96-well plates by co-incubating 1×10^6 CD8+ T cells with 2×10^5 washed coated beads in 200 μl TCM supplemented with 5 ng/ml IL-12 (PromoCell) for 3-4 days at 37° C. Half of the medium was then exchanged by fresh TCM supplemented with 80 U/ml IL-2 and incubating was continued for 3-4 days at 37° C. This stimulation cycle was performed for a total of three times. […] For analysis, a BD LSRII SORP cytometer equipped with appropriate lasers and filters was used. Peptide specific cells were calculated as percentage of total CD8+ cells. Evaluation of multimeric analysis was done using the FLOWJO software (Tree Star, Oregon, USA). In vitro priming of specific multimer+ CD8+ lymphocytes was detected by appropriate gating and by comparing to negative control stimulations.

The test system of test [1] is HLA-DR broad antigens (HLA-DR1 to DR7). The test can be described thus: ProImmune REVEAL MHC:peptide in vitro binding assay. Further details: species or system human. Conditions: relative to pass/fail control. The procedure:
The ProImmune REVEAL™ technology employs in vitro HLA-DR assembly assays to determine the on-rates for the MHC:peptide complex as one major determinant of the binding constant of individual peptides. The assay was performed by ProImmune (Oxford, UK). At a fixed time point, the amount of intact MHC:peptide complexes is measured and compared with the amount for a pass/fail control (relative weak binder). A strong, promiscuous HLA-DR binder is included as positive control. Values indicate amount of binding for the individual peptides and HLA-DR molecules relative to the pass/fail control.
In this assay, binding was compared to that of a pass/fail control binder, and to a positive control peptide for each HLA-DR antigen.

For test [2], the system named is anti-survivin T-cell response. Nature of the test: T-cell response in vaccinated prostate carcinoma patients (IFN-g ELISPOT, +/-ICS). It is filed as in vivo, human.

From patent US10159725B2, “Composition of tumor-associated peptides and related anti-cancer vaccine for the treatment of gastric cancer and other cancers” (priority 2010, dated 2018) come the findings set out here.

Turning to “AYLVYTDRL (listed as Homo sapiens) [PPAP2C-001]”, in the test with CD8+ T cells, the “Positive wells/wells tested [%]” value is 54% and the “Positive donors/donors tested [%]” value was found to be 100%.

Regarding “FYISPVNKL (listed as Homo sapiens) [AVL9-001]”, in the test on CD8+ T cells, the “Positive wells/wells tested [%]” value was found to be 50% and the “Positive donors/donors tested [%]” value stood at 100%.

For the sequence “HYKPTPLYF (listed as Homo sapiens) [SMC4-001]”, in the test on CD8+ T cells, the “Positive wells/wells tested [%]” value turned out to be 9% and the “Positive donors/donors tested [%]” value was 75%.

As for “LYQILQGIVF (listed as Homo sapiens) [CDC2-001]”, in the test on CD8+ T cells, the “Positive wells/wells tested [%]” value came out at 28% and the “Positive donors/donors tested [%]” value was 88%.

With “NYLLYVSNF (listed as Homo sapiens) [MST1R-001]”, in the test on CD8+ T cells, the “Positive wells/wells tested [%]” value came out at 14% and the “Positive donors/donors tested [%]” value turned out to be 50%.

In the case of “NYLPFIMEL (listed as Homo sapiens) [UCHL5-001]”, in the test with CD8+ T cells, the “Positive wells/wells tested [%]” value came out at 14% and the “Positive donors/donors tested [%]” value is listed as 75%.

As to “RFLSGIINF (listed as Homo sapiens) [NUF2-002]”, in the test with CD8+ T cells, the “Positive wells/wells tested [%]” value was 4% and the “Positive donors/donors tested [%]” value is 50%.

With “SYIDVLPEF (listed as Homo sapiens) [MET-006]”, in the test on CD8+ T cells, the “Positive wells/wells tested [%]” value turned out to be 22% and the “Positive donors/donors tested [%]” value is 63%.

Consider “SYIIDPLNL (listed as Homo sapiens) [PROM1-001]”, for which, in the test with CD8+ T cells, the “Positive wells/wells tested [%]” value is on record as 26% and the “Positive donors/donors tested [%]” value was found to be 83%.

Turning to “SYNPLWLRI (listed as Homo sapiens) [ASPM-002]”, in the test with CD8+ T cells, the “Positive wells/wells tested [%]” value stood at 31% and the “Positive donors/donors tested [%]” value came to 63%.

Turning to “TLGEFLKLDRERAKN (listed as Homo sapiens) [IMA-BIR-002]”, the “in vitro binding to HLA-DR (in words)” value in test [1] is “promiscuous binding of IMA-BIR-002 to HLA-DR1, 3, 4 and 11”. The “patients with induction of an anti-survivin T-cell response upon vaccination” value in test [2] (among the 16 reacting patients of 19) is 12 patients. Also, in test [2] (of the 19 patients vaccinated), the “patients who reacted to the peptide (IFN-g ELISPOT, +/-ICS)” value is given as 16 patients.

Regarding “TYGNLLDYL (listed as Homo sapiens) [ABL1-001]”, in the test with CD8+ T cells, the “Positive wells/wells tested [%]” value is recorded as 13% and the “Positive donors/donors tested [%]” value stood at 50%.

For the sequence “VWSDVTPLIF (VWSDVTPLTF; listed as Homo sapiens) [MMP11-001]”, in the test with CD8+ T cells, the “Positive wells/wells tested [%]” value worked out at 11% and the “Positive donors/donors tested [%]” value is on record as 33%.

Take “VYGIRLEHF (listed as Homo sapiens) [NUF2-001]”: in the test on CD8+ T cells, the “Positive wells/wells tested [%]” value was 25% and the “Positive donors/donors tested [%]” value was 100%.

For the sequence “VYIEKNDKL (listed as Homo sapiens) [ERBB3-001]”, in the test with CD8+ T cells, the “Positive wells/wells tested [%]” value turned out to be 15% and the “Positive donors/donors tested [%]” value is 83%.

As to “YYNAAGFNKL (listed as Homo sapiens) [UQCRB-001]”, in the test on CD8+ T cells, the “Positive wells/wells tested [%]” value is 38% and the “Positive donors/donors tested [%]” value is given as 100%.
